This is an account of results in patent US6020316A, “Glutaraldehyde modified chemotherapeutic agents and methods of use thereof” (priority 1998, dated 2000).

Assay [1] deals with L929 cells. As to the kind of experiment: Fluorescence uptake and localization of DOX and GLU-DOX in L929 cells. It is filed as cell-based, murine. The procedure: Cells were grown on 25 mm diameter microscope cover slips (Thomas, Sweedsboro, N.J.) in 35 mm tissue culture dishes. […] The wells were then rinsed two times with phosphate buffered saline and changed to fresh medium. After incubation for 0 h or 2 h, the cover slips were extracted from the plates, rinsed with PBS, mounted in an Attofluor cell chamber (Molecular Probes, Inc. Eugene, Oreg.), and examined by epifluorescence using a Zeiss microscope equipped with a 63× immersion oil objective. The combination of G546 excitation filer, FT580 dichroic mirror, and LP590 emission filter allowed efficient detection of doxorubicin fluorescence at 590 nm. The fluorescence was detected by a CCD72S camera (Dage-MTI, Inc, Michigan City, Ind.) and images were acquired and analyzed using OPTIMAS software (Optimas Corp., Seattle, Wash.). […] Area (A) per fluorescent image, i.e., per cell, and mean gray per image (MI) were measured for at least 20 cells. Mean gray for a background area containing no cell images (MB) was also determined. Fluorescence units (F.U.) per cell were calculated as: [formula]

Assay [2] deals with tumor cell. The assay is described as follows: Antitumor cell activity of DOX modified with other aldehydes and crosslinking agents. In kind it is cell-based. The following applies: substituted for glutaraldehyde in the basic modification protocol. As to the method: Other aldehydes and crosslinking agents that were substituted for glutaraldehyde in the basic modification protocol included acetaldehyde, butyraldehyde, hexanal, formaldehyde, succinyl chloride, glutaryl dichloride (all from Aldrich Chemical Co., Milwaukee, Wis.), DSG (disuccinimidyl glutarate), DMS (dimethylsuberimidate), and BS^3 (last three compounds from Pierce Chemical Co., Rockford, Ill.).
(§1) Cells from the stock cultures were plated in 35 mm plastic tissue culture dishes at a density of 1×10^5 /cm^2. After 1 to 2 days, when the monolayer had reached a final density of 2-3×10^5 /cm^2, the cultures were washed twice with Dulbecco's phosphate-buffered saline and 2 ml of serum-free DMEM was added. […] After incubation for 3 hours at 37° C. in 10% CO2, the dishes were rinsed twice with phosphate-buffered saline (pH 7.4) to remove extracellular drugs, trypsinized, and plated for determination of clonogenic survival. Trypsinization involved dispersal of cells with 0.25% trypsin, followed by culture in DMEM plus 10% newborn calf serum for 7 days. Plates were examined after staining with methylene blue, and clones containing more than 10 cells were counted. The surviving fraction was the ratio of the plating efficiency of the cultures exposed to DOX divided by the plating efficiency of control cultures maintained in a medium of the same composition. Plating efficiency is defined as the number of colonies formed divided by the number of cells plated.

Assay [3] relates to HTB (bladder transitional cell carcinoma). As to the kind of experiment: Clonogenic survival of human bladder transitional cell carcinoma cells. In kind it is cell-based. The following applies: FIG. 3A. The procedure: (§2) The murine L929 cell line, a human breast adenocarcinoma cell line (MCF-7) and a human bladder transitional cell carcinoma cell line (RT-4) were used to test the compounds of the present invention. All cell lines were obtained from MA Bioproducts (Bethesda, Md.) and were routinely maintained in high-glucose Dulbecco's Modified Eagle's Minimum Essential Medium (DMEM) and 10% newborn calf serum (L929) or 10% fetal calf serum (MCF-7 and RT-4). A DOX-resistant cell line, L929/DOX, was prepared by treating the L929 cell line with gradually increasing concentrations of DOX in vitro until a cell line that grew at a concentration of 50 μg/ml DOX was attained. A resistant subclone was then treated once with 100 μg/ml of DOX. The surviving resistant population was used in subsequent experiments. The L929/DOX cells were maintained in DMEM medium supplemented with 10% fetal calf serum and lacking DOX.
(§3) Cells from the stock cultures were plated in 35 mm plastic tissue culture dishes at a density of 1×10^5 /cm^2. After 1 to 2 days, when the monolayer had reached a final density of 2-3×10^5 /cm^2, the cultures were washed twice with Dulbecco's phosphate-buffered saline and 2 ml of serum-free DMEM was added. […] Plates were examined after staining with methylene blue, and clones containing more than 10 cells were counted. […]

The subject of assay [4] is L929/DOX cells. As to the kind of experiment: Drug efflux from L929/DOX cells versus wild type cells. In kind it is cell-based, murine. The text has this: The surviving resistant population was used in subsequent experiments.
Assay [5] deals with MCF-7 (breast adenocarcinoma). The assay is described as follows: Clonogenic survival of human breast adenocarcinoma cells. It is filed as cell-based. The following applies: FIG. 3B. As to the method:
as §2, §3

Assay [6] deals with HLC (lung carcinoma). As to the kind of experiment: Clonogenic survival of human lung carcinoma cells. In kind it is cell-based. To be noted: FIG. 3C. As to the method:
as §1

Turning to `COC(=O)c1ccccc1-c1c2ccc(=N)cc-2oc2cc(N)ccc12` [rhodamine 123], the “intracellular localization compared with rhodamine 123” value in assay [1] (2 h exposure, GLU-DOX (100:1) 5 μg/ml, rhodamine 123 10 μg/ml, FIGS. 5A, 5B) was “strikingly similar”. For glutaryl dichloride, the “antitumor cell activity of the DOX reaction product relative to DOX” value in assay [2] is given as “None of these compounds, when reacted with DOX, produced a derivative with increased antitumor cell activity relative to DOX”. On the same count and under the same terms, next, acetaldehyde: “None of these compounds, when reacted with DOX, produced a derivative with increased antitumor cell activity relative to DOX”; formaldehyde: “None of these compounds, when reacted with DOX, produced a derivative with increased antitumor cell activity relative to DOX”. In the case of `O=C(Cl)CCC(=O)Cl` [succinyl chloride], the “antitumor cell activity of the DOX reaction product relative to DOX” value in assay [2] was “None of these compounds, when reacted with DOX, produced a derivative with increased antitumor cell activity relative to DOX”. Turning to `CCCCCC=O` [hexanal], in assay [2], the “antitumor cell activity of the DOX reaction product relative to DOX” value is recorded as “None of these compounds, when reacted with DOX, produced a derivative with increased antitumor cell activity relative to DOX”.

For `COc1cccc2c1C(=O)c1c(O)c3c(c(O)c1C2=O)C[C@@](O)(C(=O)CO)C[C@@H]3O[C@H]1C[C@H](N)[C@H](O)[C@H](C)O1` [DOX, doxorubicin], the “sensitivity to DOX” value in assay [3], in assay [5] and in assay [6] was “relatively insensitive” throughout. Besides, the “Uptake: Mean Fluorescence Units per Cell” value in assay [1] (5 μg/ml, 3 h at 37° C.) is listed as 124 ± 29 Fluorescence Units per Cell; in assay [1] (5 μg/ml, 3 h at 37° C. + 2 h chase), 18 ± 6 Fluorescence Units per Cell. The “fluorescence after chase in drug-free medium” value in assay [1] (2 hr chase, FIGS. 4B, 4D) was “nearly all DOX was lost from the cytoplasmic compartment although some nuclear fluorescence was still detectable”. The “subcellular distribution of fluorescence” value in assay [1] (3 h exposure, 5 μg/ml, FIGS. 4A, 4C) was “in both nucleus and cytoplasm with distinct paranuclear concentration in some cells”. Besides, the “drug efflux from L929/DOX relative to wild type cells” value in assay [4] was “pumped out of the L929/DOX cells much faster than out of the wild type cells”. Consider butyraldehyde, for which the “antitumor cell activity of the DOX reaction product relative to DOX” value in assay [2] is listed as “None of these compounds, when reacted with DOX, produced a derivative with increased antitumor cell activity relative to DOX”.
